Measured values as given in patent US4666916A, “Hexahydro-(1)-benzo-(pyrano and thiopyrano) (4,3-C)pyridines, useful as serotin-2 blocking agents” (Ciba-Geigy Corporation, priority 1985, dated 1987).

Columns and labels:
serotonin-2 receptor = biological target: T1, serotonin-2 receptor (Rattus norvegicus, UniProt P14842); test: head twitch test, inhibition of the head twitch induced by 5-hydroxytryptophane in the rat; type: in vivo, Male Wistar rats
T1 construct: Male Wistar rats (120-180 g) are fasted for 18 hr prior to testing; from tissue; host or cells: whole living animal (male Wistar rat), endogenous receptor of the central nervous system
T1 sequence (P14842 whole entry): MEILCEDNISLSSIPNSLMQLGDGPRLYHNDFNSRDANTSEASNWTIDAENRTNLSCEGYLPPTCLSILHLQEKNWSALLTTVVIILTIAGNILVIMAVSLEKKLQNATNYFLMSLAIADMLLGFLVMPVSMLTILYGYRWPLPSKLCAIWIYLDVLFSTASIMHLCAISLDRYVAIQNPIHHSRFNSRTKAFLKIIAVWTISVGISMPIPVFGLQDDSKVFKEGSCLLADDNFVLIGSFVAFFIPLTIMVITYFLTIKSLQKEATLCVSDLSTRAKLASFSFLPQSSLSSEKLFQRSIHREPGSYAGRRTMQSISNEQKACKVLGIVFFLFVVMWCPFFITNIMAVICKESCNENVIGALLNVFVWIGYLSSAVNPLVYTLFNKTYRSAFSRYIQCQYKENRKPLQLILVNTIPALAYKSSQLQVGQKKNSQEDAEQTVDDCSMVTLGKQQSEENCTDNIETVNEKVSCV
Method: The serotonin-2 antagonism or blockade is determined in vivo by measuring the inhibition of the head twitch induced by 5-hydroxytryptophane (the metabolic precursor of serotonin) in the rat. The head twitch test for assessing central nervous system serotonin-2 receptor antagonism in the rat is described in Neuropharmacology 16, 663 (1977) and in J. Pharmacol. Exp. Ther. 228, 133 (1984). The test is carried out as follows:
Male Wistar rats (120-180 g) are fasted for 18 hr prior to testing but allowed water ad libitum. All animals are pretreated with the peripheral decarboxylase inbihitor alpha-methyl-DOPA hydrazine (carbidopa 25 mg/kg i.p., 4.0 ml/kg) followed 30 min later by 5-hydroxytryptophan (5HTP 100 mg/kg s.c., 4.0 ml/kg). Ninety minutes after receiving 5HTP, the rats are placed individually in plexiglas observation cages and the frequency of head twitches for each animal is counted over a 10 min observation period. The test compound or vehicle is administered at either 0.5 hr at 1.0 ml/kg i.p. or at 1, 2 or 4 hr at 10 ml/kg p.o. prior to the observation period. ED50 values are determined by probit analysis.

[1] = biological target: T2, serotonin-2 (HT-2) receptor (Rattus norvegicus, UniProt P14842); test: serotonin-2 (HT-2) receptor binding, inhibition of specific binding of ^3 H-ketanserin in frontal/parietal cortex membranes; parameters: species or system male Sprague-Dawley rats; conditions: specific binding of ^3 H-ketanserin (0.4 nM)
T2 construct: membrane preparations of frontal/parietal cortex from male Sprague-Dawley rats; from tissue; host or cells: rat frontal/parietal cortex membranes (male Sprague-Dawley)
T2 sequence (P14842 whole entry): as above
Method: The serotonin-2 (HT-2) receptor binding properties, indicative of the serotonin-2 antagonist activity of the compounds of the invention, are determined in vitro by determining their ability to inhibit the specific binding of ^3 H-ketanserin, essentially as described by Battaglia et al in Life Sciences 33, 2011 (1983), in membrane preparations of frontal/parietal cortex from male Sprague-Dawley rats (200-225 g). IC50 values, representing the concentration of compound required to displace 50% of specific binding of 0.4 nM of ^3 H-ketanserin, are determined by log-logit analysis of the specific binding data. Selectivity for the HT-2 receptors can be determined by also measuring specific binding to serotonin-1 (HT-1) receptors, e.g. according to Middlemiss, D. N. and Fozard, J. R. in Eur. J. Pharmacol. 90, 151 (1980).

CCSC[C@H]1CN(C)C[C@H]2c3cc(OC)cc(Br)c3OC[C@H]12 (relative stereo) [Example 4, (±)-[4R*,4aS*,10bR*]-7-Bromo-4-(ethylthiomethyl)-1,3,4,4a,5,10b-hexahydro-9-methoxy-2-methyl-2H-[1]benzopyrano[4,3-c]pyridine]
ED50 (serotonin-2 receptor; 0.5 h, ip (at 30 minutes)): 1.1 mg/kg | ED50 (serotonin-2 receptor; po (at 1 hour)): 0.71 mg/kg | IC50 [1]: 22 nM
